# In patent US6784155B1, “Inhibitor and stimulator of stem cell proliferation and uses thereof” (Wellstat Therapeutics Corporation, priority 1996, dated 2004):
# No end group written: not given here. *: point of attachment. Biotin = O=C1N[C@H]2[C@H](CS[C@H]2CCCCC(=O)*)N1; C4 linker = not defined here
# Experiments:
# CFU-MIX [1] = test: CFU-MIX cycling assay in vitro (Ara C kill); assay type: cell-based, mouse
# Procedure: A similar assay can be performed in vitro, using the cycling status of CFU-MIX instead of CFU-S. The assay is performed as described above for the CFU-S assay except that cytosine arabinoside (Ara C, 30 micrograms/ml) is used as the cycle-specific toxic agent instead of high dose tritiated thymidine (see B. I. Lord in Haemopoiesis—A Practical Approach, N. G. Testa and G. Molineux (Eds.), IRL Press 1993; Pragnell et al. in Culture of Hematopoietic Cells, R. I. Freshney, I. B. Pragnell and M. G. Freshney (Eds.), Wiley Liss 1994) and a mouse strain with high endogenous cycling rates (Balb/c) is used instead of testosterone-treated BDFI mice.
# 24 hours later (Day 1), varying doses of peptide 43-55 or vehicle were injected i.v. Bone marrow was harvested on Day 2 and the […] cycling assay conducted as in Example 14. Specifically, mice were sacrificed and single cell bone marrow suspensions prepared from the femurs. The cells were washed once and the concentration adjusted to 5×10^6 cells/ml in Fischer medium. For each test condition, one milliliter of cells was added to each of two polypropylene tubes. The tubes were incubated at 37° C. for 3 hours without (“Control”) or with (“Experimental”) the appropriate concentration of test substance. At the end of the incubation, 30 μg/ml of cytosine arabinoside (“Ara C” (Sigma)) was added to half of the tubes and the same volume of Fischer's medium was added to the others. The tubes were incubated for a further 1 hour at 37° C., after which they were placed on ice and washed twice with cold Fischer medium.
# The cells were readjusted to 5×10^4-10^6/ml in Fischer's medium and 0.5 ml of cell suspension added to 5 ml of Methocult M3430 methylcellulose medium (Stem Cell Technologies, Vancouver, British Columbia). The mixture was vigorously mixed with a vortex and 1 ml was dispensed into each of five 35 mm dishes. The 35 mm dishes were in turn placed in a covered 150 mm dish with one open 35 mm dish containing sterile water. CFU-MIX colonies were counted with the use of an inverted microscope after 7 days of incubation at 37° C.
# Differences in colony number between the tubes treated with medium versus the tubes treated with Ara C represent the percentage of cells in cycle under that condition according to the formula:
# a=Number of CFU-MIX from tube incubated with medium alone
# b=Number of CFU-MIX from tube incubated with Ara C
# CFU-MIX [2] = test: Stimulation of cycling of quiescent murine stem cells, CFU-MIX cycling assay in vitro; assay type: cell-based, mouse
# Procedure: Microgram per milliliter doses of hemoglobin chains, myoglobin and peptides were assayed for stimulation of quiescent stem cells. Bone marrow was obtained from untreated B6D2F1 tested in the CFU-MIX cycling assay as in Example 24. Stem cells isolated from untreated B6D2F1 mice are normally slowly cycling unless stimulated (e.g. by testosterone propionate (cf. Example 1) or chemotherapy such as 5FU (cf. Example 4)) to enter into cycle.
# [3] = Table 39, untreated B6D2F1 bone marrow, 10^−3M
# [4] = Table 39, untreated B6D2F1 bone marrow, 10^−5M
# [5] = Table 13, bone marrow from Balb/c mice, 100 ng/ml
# [6] = Table 38, untreated B6D2F1 bone marrow, concentration printed only as (μg/ml)
molecule,measurement,setting,value
"1-94 fragment: purified formic-acid cleaved fragment, amino acids 1-94 of human alpha hemoglobin chain",% Kill,"CFU-MIX [1]; Table 20, Balb/c bone marrow, 100 ng/ml",0%
"CC(C)C[C@@H](NC(=O)[C@H](Cc1ccccc1)NC(=O)CNC(=O)[C@@H](C)NC(=O)[C@@H](N)Cc1ccc(O)cc1)C(=O)O [DADLE, reference compound]",% Kill,CFU-MIX [2]; [3],0%
same,% Kill,CFU-MIX [2]; [4],0%
"C=CCN1CC[C@]23c4c5ccc(O)c4O[C@H]2C(=O)CC[C@@]3(O)[C@H]1C5 [Naloxone, naloxone, reference compound]",effect of naloxone itself on the assay,CFU-MIX [1]; 10^−5-10^−7M,no effect
same,% Kill,"CFU-MIX [1]; Table 28, naloxone alone, 10^−5M final concentration",36%
same,% Kill,"CFU-MIX [1]; Table 30, 10^−10M",0%
"(D-Arg^2, Lys^4)-Dermorphin-(1-4)-amide [DALDA, reference compound]",% Kill,CFU-MIX [2]; [3],41%
same,% Kill,CFU-MIX [2]; [4],24%
same,% Kill,"CFU-MIX [1]; Table 26, Balb/c bone marrow, 10^−5M",47%
same,% Kill,"CFU-MIX [1]; Table 26, Balb/c bone marrow, 10^−7M",0%
same,% Kill,"CFU-MIX [1]; Table 26, Balb/c bone marrow, 10^−9M",34%
Biotinylated alpha chain: human hemoglobin alpha chain from hemoglobin treated with NHS LC Biotin,% Kill,CFU-MIX [1]; [5],7%
Biotinylated beta chain: human hemoglobin beta chain from hemoglobin treated with NHS LC Biotin,% Kill,CFU-MIX [1]; [5],25%
"Biotinylated peptide 43-55: Peptide 43-55 with biotin linked via a C4 carbon linker to the N-terminal NH2 of Phe43 ({Biotin-C4 linker}-FPHFDLSHGSAQV; reading uncertain; UniProt P69905 44-56, looked up, fragment)",% Kill,"CFU-MIX [1]; Table 24, 1 ng/ml",15%
"H-D-Phe-Cys-Tyr-D-Trp-Orn-Thr-Pen-Thr-NH2 [CTOP, reference compound]",effect of CTOP itself on the assay,CFU-MIX [1]; 10^−7 M,no effect
same,% Kill,"CFU-MIX [1]; Table 31, CTOP alone, 10^−7M final concentration",36%
Human beta chain: purified human hemoglobin beta chain,% Kill,CFU-MIX [2]; [6],55%
same,% Kill,"CFU-MIX [1]; Table 11, bone marrow from Balb/c mice, 100 ng/ml",41%
same,% Kill,CFU-MIX [1]; [5],55%
Human delta chain: purified human hemoglobin delta chain,% Kill,"CFU-MIX [1]; Table 12, bone marrow from Balb/c mice, 100 ng/ml",−4%
same,% Kill,"CFU-MIX [1]; Table 29, 100 ng/ml, alone",10%
"Leu-Val-Val-Tyr-Pro-Trp-Thr-Gln-Arg-Phe (LVVYPWTQRF; printed: Leu-Val-Val-Tyr-Pro-Trp-Thr-Gln-Arg-Phe) [Hemorphin 10, reference compound]",% Kill,"CFU-MIX [1]; Table 18, 100 ng/ml",1%
same,% Kill,"CFU-MIX [1]; Table 28, 100 ng/ml, alone",0%
"VVYPWTQR [Hemorphin 7, reference compound]",% Kill,"CFU-MIX [1]; Table 18, 100 ng/ml",0%
"Human Myoglobin: human myoglobin (protein, UniProt P02144 2-154, looked up) Myoglobin: GLSDGEWQLVLNVWGKVEADIPGHGQEVLIRLFKGHPETLEKFDKFKHLKSEDEMKASEDLKKHGATVLTALGGILKKKGHHEAEIKPLAQSHATKHKIPVKYLEFISECIIQVLQSKHPGDFGADAQGAMNKALELFRKDMASNYKELGFQG",% Kill,CFU-MIX [2]; [6],30%
same,"stem cell inhibitory activity, in words",CFU-MIX [1]; CFU-MIX cycling assay,inactive
